18 compounds from patent US10414763B2 (CANCER RESEARCH TECHNOLOGY LIMITED, priority 2014, dated 2019) can be followed below.

pIC50: −log10 of the molar value. Where only a bound is given, the exact number is not on record here.

For this test, the target named is T1, full-length human PKCι (Homo sapiens, UniProt P41743).
T1 construct: Recombinant, full-length human PKCι expressed in Sf21 insect cells is also commercially available; purchased EMD Millipore; host or cells: Sf21 insect cells (baculovirus)
T1 sequence (P41743 1-596): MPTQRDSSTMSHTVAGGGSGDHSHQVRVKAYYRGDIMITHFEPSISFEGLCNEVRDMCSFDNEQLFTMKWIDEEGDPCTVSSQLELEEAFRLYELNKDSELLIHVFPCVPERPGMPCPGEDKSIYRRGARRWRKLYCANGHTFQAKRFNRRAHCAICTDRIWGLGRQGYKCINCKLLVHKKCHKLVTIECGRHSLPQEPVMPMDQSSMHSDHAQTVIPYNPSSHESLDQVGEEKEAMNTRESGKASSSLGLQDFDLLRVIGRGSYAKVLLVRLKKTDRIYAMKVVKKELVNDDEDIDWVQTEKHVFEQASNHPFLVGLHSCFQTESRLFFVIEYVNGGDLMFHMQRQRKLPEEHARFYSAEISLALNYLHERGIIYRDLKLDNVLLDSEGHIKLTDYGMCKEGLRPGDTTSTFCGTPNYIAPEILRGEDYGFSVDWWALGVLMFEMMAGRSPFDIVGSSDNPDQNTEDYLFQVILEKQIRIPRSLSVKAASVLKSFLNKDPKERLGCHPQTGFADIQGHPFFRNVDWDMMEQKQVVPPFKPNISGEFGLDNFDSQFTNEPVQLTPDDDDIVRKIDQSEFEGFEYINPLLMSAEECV
Description: PKCι IC50 IMAP fluorescence polarisation assay, full-length enzyme, 150 μM ATP. The test is classed as biochemical. Conditions: read-out: IC50 in IMAP assay against full length PKCi at 150 μM ATP. From the text: Assays are based on the ability of PKCι to phosphorylate a commercially available peptide substrate in vitro. The peptide substrate is FAM-PKCε pseudopeptide derived peptide, and comprises the amino acid sequence 5FAM-ERMRPRKRQGSVRRRV-NH2. Recombinant, full-length human PKCι expressed in Sf21 insect cells is also commercially available. Recombinant, kinase-domain human PKCι is expressed and purified in-house.
The procedure below explains how dose response curves for inhibitors of PKCι are obtained. The screen described is for a 384 well format but the assay can be adapted to 1536 or other formats as required.
Compounds to be tested are dissolved in 100% DMSO. Compounds are diluted as required to give a final concentration of 4% DMSO (v/v) in the assay. 1 μl is plated into 384 well black low-binding flat bottomed assay plates which are used immediately. Dilutions and additions of compound to assay plates are carried out using Matrix WellMate® and Matrix PlateMate® Plus liquid handling systems.
On the day of the screen PKCι/substrate working solution, and ATP working solution, are prepared in buffer containing 20 mM tris-HCl pH7.5, 10 mM MgCl2, 0.01% Triton X100, 250 μM EGTA and 1 mM DTT. The final concentration of PKCι used varies depending on the batch of protein but is typically 15 pM. The final concentration of peptide substrate in the assay is 100 nM. ATP is used at a final concentration of 150 μM or 25 μM in the assays containing full-length or kinase-domain PKCι respectively, which corresponds to five times or equal to the KM^APP for ATP for each enzyme, respectively. The final buffer concentration in the assay is 18 mM tris-HCl pH7.5, 9 mM MgCl2, 0.009% Triton X100, 225 μM EGTA and 0.9 mM DTT. Relevant controls are included, namely no compound and no enzyme. 5 μl PKCι/substrate working solution at 30 pM and 200 nM, respectively, is added to the wells, followed by 4 μl ATP working solution at 375 μM or 62.5 μM for full-length or kinase-domain PKCι respectively, using a 16 channel Matrix pipette. The reaction is allowed to incubate for 60 minutes at room temperature, before the reaction is stopped and developed by the addition of 20 μl IMAP™ development reagent (Molecular Devices). IMAP development reagent consists of 0.25% (v/v) IMAP progressive binding reagent, 17% (v/v) IMAP progressive binding buffer A and 3% (v/v) IMAP progressive binding buffer B. The plates are then incubated for 2 hours at room temperature before being read using an appropriate plate reader, for example a Molecular Devices HT Analyst or a BMG Pherastar. Plates are read using a fluorescence polarisation protocol with excitation at 485 nm and emission at 530 nm, and dichroic mirror at 505 nm.
Percentage inhibition values are calculated from fluorescence polarisation values, using the no compound and no enzyme control values as 0% and 100% inhibition, respectively. IC50 determination is performed with ExcelFit software (IDBS) using curve fit 205. Z′ factors are determined for each plate tested and are all above 0.5.
Alternatively, compounds were tested for their ability to inhibit the kinase activity of recombinant human baculovirus-expressed PKCiota using the immobilized metal-ion affinity particle (IMAP®) fluorescence polarization detection system (Molecular Devices, Sunnyvale, Calif.). PKCiota/IMAP® substrate mixture (2×) was prepared in 1×IMAP assay buffer (Molecular Devices) containing 1 mM DTT so that the final assay concentrations were 15 pM PKCiota (EMD Millipore, Billerica, Mass.) and 100 nM 5-fluorescein-amidite (FAM)-PKC ? -pseudosubstrate (5-FAM-ERMRPRKRQGSVRRRV-NH2) (Molecular Devices). The 2× working solution was added at 5 μL/well into a 384-well black, non-binding, flat bottom assay plate (Corning, Corning, N.Y.). […]
(In general: Polarisation of emitted light reports the rotation of a fluorescent probe.)

For orientation: pIC50 means the negative decadic logarithm of the IC50, by convention in mol/L. Take `OC1CNCCC(Nc2nc(-c3ccnc4[nH]c5ccccc5c34)nc3cncc(C4CCC4)c23)C1` (racemic) [Example 230, Cis- or trans-(±)-5-[5-Cyclobutyl-2-(9H-pyrido[2,3-b]indol-4-yl)-pyrido[3,4-d]pyrimidin-4-ylamino]-azepan-3-ol]: the pIC50 is > 7.00.
Next, `FC(F)(F)c1cc2c(-c3nc(N4CC[C@H]5NCCC[C@H]54)c4c(C5CC5)cncc4n3)ccnc2[nH]1` (racemic) [Example 63, (±)-5-Cyclopropyl-4-(3,7-cis)-octahydro-pyrrolo[3,2-b]pyridin-1-yl-2-(2-trifluoromethyl-1H-pyrrolo[2,3-b]pyridin-4-yl)-pyrido[3,4-d]pyrimidine]: > 7.00; `NC1CCN(c2nc(-c3ccnc4[nH]c5ccccc5c34)nc3cncc(C4CCC4)c23)C1` (stereo not drawn) [Example 214, 1-[5-Cyclobutyl-2-(9H-pyrido[2,3-b]indol-4-yl)-pyrido[3,4-d]pyrimidin-4-yl]-pyrrolidin-3-ylamine]: > 7.00.
The same measure for `C[C@H]1CNCC[C@@H]1Nc1nc(-c2ccnc(Nc3ncccc3F)c2)nc2cncc(C3CCC3)c12` (single isomer, unassigned) [Example 342, 5-Cyclobutyl-2-[2-[(3-fluoro-2-pyridyl)amino]-4-pyridyl]-N-[(3S,4S)-3-methyl-4-piperidyl]pyrido[3,4-d]pyrimidin-4-amine or enantiomer]: > 7.00.
Regarding `O[C@@H]1CNCC[C@H]1Nc1nc(-c2ccnc(Nc3ncccc3F)c2)nc2cncc(C3CC3)c12` (racemic) [Example 308, rac-(3R,4R)-4-{5-Cyclopropyl-2-[2-(3-fluoro-pyridin-2-ylamino)-pyridin-4-yl]-pyrido[3,4-d]pyrimidin-4-ylamino}-piperidin-3-ol], the pIC50 is 6.00 to 7.00.
Next, `CC1(C)CNCC[C@@H]1Nc1nc(-c2ccnc(Nc3ncc(F)cc3F)c2)nc2cncc(C3CC3)c12` [Example 391, {5-Cyclopropyl-2-[2-(3,5-difluoro-pyridin-2-ylamino)-pyridin-4-yl]-pyrido[3,4-d]pyrimidin-4-yl}-((S)-3,3-dimethyl-piperidin-4-yl)-amine]: > 7.00; `CC1(C)CNCC[C@@H]1Nc1nc(-c2ccnc(Nc3nc4ccc(F)cc4o3)c2)nc2cncc(C3CC3)c12` [Example 332, N-[4-[5-Cyclopropyl-4-[[(4S)-3,3-dimethyl-4-piperidyl]amino]pyrido [3,4-d]pyrirnidin-2-yl]-2-pyridyl]-6-fluoro-1,3-benzoxazol-2-amine]: > 7.00; `CC1(C)CNCC[C@@H]1Nc1nc(-c2ccnc(Nc3cc(F)ccn3)c2)nc2cncc(C3CCC3)c12` [Example 382, {5-Cyclobutyl-2-[2-(4-fluoro-pyridin-2-ylamino)-pyridin-4-yl]-pyrido[3,4-d]pyrimidin-4-yl}-((S)-3,3-dimethyl-piperidin-4-yl)-amine]: > 7.00.
Next, `Cc1cc2c(-c3nc(N[C@H]4CCNCC4(C)C)c4c(C5CC5)cncc4n3)ccnc2[nH]1` [Example 153, [5-Cyclopropyl-2-(2-methyl-1H-pyrrolo[2,3-b]pyridin-4-yl)-pyrido[3,4-d]pyrimidin-4-yl]-((S)-3,3-dimethyl-piperidin-4-yl)-amine]: 6.00 to 7.00.
Next, `CC1(C)CNCCC1Nc1nc(-c2ccnc(Nc3ncc(Cl)cc3F)c2)nc2cncc(C3CCC3)c12` (stereo not drawn) [Example 88, {2-[2-(5-Chloro-3-fluoro-pyridin-2-ylamino)-pyridin-4-yl]-5-cyclobutyl-pyrido[3,4-d]pyrimidin-4-yl}-(3,3-dimethyl-piperidin-4-yl)-amine]: > 7.00.
As to `O[C@@H]1CNCC[C@H]1Nc1nc(-c2ccnc(Nc3ncccc3F)c2)nc2cncc(C3CCC3)c12` (racemic) [Example 286, rac-(3R,4R)-4-{5-Cyclobutyl-2-[2-(3-fluoro-pyridin-2-ylamino)-pyridin-4-yl]-pyrido[3,4-d]pyrimidin-4-ylamino}-piperidin-3-ol], the pIC50 is > 7.00.
Next, `CN(c1nc(-c2ccnc(Nc3ncn(Cc4ccccc4)n3)c2)nc2cncc(C3CC3)c12)C1CCNCC1(C)C` (racemic) [Example 238, rac-{2-[2-(1-Benzyl-1H-1,2,4-triazol-3-ylamino)-pyridin-4-yl]-5-cyclopropyl-pyrido[3,4-d]pyrimidin-4-yl}-(3,3-dimethyl-piperidin-4-yl)-methyl-amine]: > 7.00.
Regarding `CC1(C)CNCC[C@@H]1Nc1nc(-c2ccnc(Nc3nc4ccccn4n3)c2)nc2cncc(C3CCC3)c12` [Example 275, {5-Cyclobutyl-2-[2-([1,2,4]triazolo[1,5-a]pyridin-2-ylamino)-pyridin-4-yl]-pyrido[3,4-d]pyrimidin-4-yl}-((S)-3,3-dimethyl-piperidin-4-yl)-amine], the pIC50 is > 7.00.
`FC(F)(F)c1cc2c(-c3nc(N4CCCC5NCCCC54)c4c(C5CC5)cncc4n3)ccnc2[nH]1` (stereo not drawn) [Example 64, 5-Cyclopropyl-4-(octahydro-[1,5]naphthyridin-1-yl)-2-(2-trifluoromethyl-1H-pyrrolo[2,3-b]pyridin-4-yl)-pyrido[3,4-d]pyrimidine]: the pIC50 is > 7.00.
The same measure for `C[C@@H]1CNCC[C@H]1Nc1nc(-c2ccnc(Nc3ncccc3F)c2)nc2cncc(C3CCC3)c12` (single isomer, unassigned) [Example 341, 5-Cyclobutyl-2-[2-[(3-fluoro-2-pyridyl)amino]-4-pyridyl]-N-[(3R,4R)-3-methyl-4-piperidyl]pyrido[3,4-d]pyrimidin-4-amine or enantiomer]: > 7.00; for `O[C@@H]1CNCC[C@H]1Nc1nc(-c2ccnc(Nc3ncc(F)cc3F)c2)nc2cncc(C3CCC3)c12` (racemic) [Example 287, rac-(3R,4R)-4-{5-Cyclobutyl-2-[2-(3,5-difluoro-pyridin-2-ylamino)-pyridin-4-yl]-pyrido[3,4-d]pyrimidin-4-ylamino}-piperidin-3-ol]: > 7.00.
As for `OC[C@@H]1CNCCN1c1nc(-c2ccnc3[nH]c(C(F)(F)F)cc23)nc2cncc(C3CC3)c12` [Example 4, {(S)-1-[5-Cyclopropyl-2-(2-trifluoromethyl-1H-pyrrolo[2,3-b]pyridin-4-yl)-pyrido[3,4-d]pyrimidin-4-yl]-piperazin-2-yl}-methanol], the pIC50 was 6.00 to 7.00.
Next, `CS(=O)(=O)c1cc2c(-c3nc(N4CCNCC4)c4c(C5CCC5)cncc4n3)ccnc2[nH]1` [Example 120, 5-Cyclobutyl-2-(2-methanesulfonyl-1H-pyrrolo[2,3-b]pyridin-4-yl)-4-piperazin-1-yl-pyrido[3,4-d]pyrimidine]: > 7.00.
